Measurements: ChEMBL document CHEMBL3885861, “Open TG-GATES”

Organism: Rattus norvegicus
Assay: Open TG-GATES - Regimen: Daily Repeat
Format: toxicity, organism-based, Sprague-Dawley
Parameters: regimen Daily Repeat, gender Male, age 6 weeks
Settings: in vivo, po, 100 mg/kg, route gavage, dose level Low; for APTT / Bas / Eos / Fbg / Hb / Ht / Lym / MCH / MCHC / MCV / Mono / Neu / PT / Plat / RBC / Ret / WBC: tissue Blood; for KIDNEY_L / KIDNEY_R / KIDNEY_TOTAL: tissue Kidney; for LIVER: tissue Liver; for A/G / ALP / ALT / AST / BUN / CRE / Ca / Cl / DBIL / GLC / IP / LDH / Na / PL / RALB / TBIL / TC / TG / TP / gamma-GTP: tissue Plasma

Q: Which results are given for `NC(N)=Nc1nc(CSCCC(N)=NS(N)(=O)=O)cs1` [FAMOTIDINE]?
A: TERMINAL_BW (72 h, time 3 day): 224.5 g; APTT (72 h, time 3 day): 19.8 s; Bas (72 h, time 3 day): 0%; Eos (72 h, time 3 day): 1%; Fbg (72 h, time 3 day): 225.2 mg/dL; Hb (72 h, time 3 day): 13.3 g/dL; Ht (72 h, time 3 day): 37.3%; Lym (72 h, time 3 day): 78.4%; MCH (72 h, time 3 day): 22.1 pg; MCHC (72 h, time 3 day): 35.6%; MCV (72 h, time 3 day): 62.1 fL; Mono (72 h, time 3 day): 2.6%; Neu (72 h, time 3 day): 15.6%; PT (72 h, time 3 day): 12 s; Plat (72 h, time 3 day): 124.1 x10_4/uL; RBC (72 h, time 3 day): 600.6 x10_4/ul; Ret (72 h, time 3 day): 5.7%; WBC (72 h, time 3 day): 87.5 x10_2/uL; KIDNEY_L (72 h, time 3 day): 1 g; KIDNEY_R (72 h, time 3 day): 1 g; KIDNEY_TOTAL (72 h, time 3 day): 2 g; LIVER (72 h, time 3 day): 10.2 g; A/G (72 h, time 3 day): 1.6; ALP (72 h, time 3 day): 1126.4 IU/L; ALT (72 h, time 3 day): 30.2 IU/L; AST (72 h, time 3 day): 63.6 IU/L; BUN (72 h, time 3 day): 16.6 mg/dL; CRE (72 h, time 3 day): 0.4 mg/dL; Ca (72 h, time 3 day): 10.7 mg/dL; Cl (72 h, time 3 day): 102.8 meq/L; DBIL (72 h, time 3 day): 0.086 mg/dL; GLC (72 h, time 3 day): 190.4 mg/dL; IP (72 h, time 3 day): 7.2 mg/dL; LDH (72 h, time 3 day): 190.6 IU/L; Na (72 h, time 3 day): 139 meq/L; PL (72 h, time 3 day): 136.8 mg/dL; RALB (72 h, time 3 day): 3.3 g/dL; TBIL (72 h, time 3 day): 0.1 mg/dL; TC (72 h, time 3 day): 73.8 mg/dL; TG (72 h, time 3 day): 63.2 mg/dL; TP (72 h, time 3 day): 5.5 g/dL; gamma-GTP (72 h, time 3 day): 1.2 IU/L; TERMINAL_BW ([…], time 7 day): 259.3 g; TERMINAL_BW ([…], time 14 day): 310.4 g; TERMINAL_BW ([…], time 28 day): 389.2 g; APTT ([…], time 7 day): 20.9 s; Bas ([…], time 7 day): 0%; Eos ([…], time 7 day): 1%; Fbg ([…], time 7 day): 217.6 mg/dL; Hb ([…], time 7 day): 13.5 g/dL; Ht ([…], time 7 day): 37.6%; Lym ([…], time 7 day): 78.6%; MCH ([…], time 7 day): 22 pg; MCHC ([…], time 7 day): 35.9%; MCV ([…], time 7 day): 61.5 fL; Mono ([…], time 7 day): 2.8%; Neu ([…], time 7 day): 16.4%; PT ([…], time 7 day): 12.1 s; Plat ([…], time 7 day): 116.2 x10_4/uL; RBC ([…], time 7 day): 612 x10_4/ul; Ret ([…], time 7 day): 5.2%; WBC ([…], time 7 day): 95.1 x10_2/uL; APTT ([…], time 14 day): 22.2 s; Bas ([…], time 14 day): 0%; Eos ([…], time 14 day): 0.6%; Fbg ([…], time 14 day): 217.4 mg/dL; Hb ([…], time 14 day): 14.4 g/dL; Ht ([…], time 14 day): 41.5%; Lym ([…], time 14 day): 77.4%; MCH ([…], time 14 day): 20.9 pg; MCHC ([…], time 14 day): 34.8%; MCV ([…], time 14 day): 60 fL; Mono ([…], time 14 day): 2.4%; Neu ([…], time 14 day): 17.8%; PT ([…], time 14 day): 12.6 s; Plat ([…], time 14 day): 111.6 x10_4/uL; RBC ([…], time 14 day): 691.8 x10_4/ul; Ret ([…], time 14 day): 4%; WBC ([…], time 14 day): 94.5 x10_2/uL; APTT ([…], time 28 day): 21.5 s; Bas ([…], time 28 day): 0%; Eos ([…], time 28 day): 1.6%; Fbg ([…], time 28 day): 219.4 mg/dL; Hb ([…], time 28 day): 15.5 g/dL; Ht ([…], time 28 day): 43.7%; Lym ([…], time 28 day): 81.2%; MCH ([…], time 28 day): 19.4 pg; MCHC ([…], time 28 day): 35.5%; MCV ([…], time 28 day): 54.9 fL; Mono ([…], time 28 day): 1.6%; Neu ([…], time 28 day): 14.2%; PT ([…], time 28 day): 12.8 s; Plat ([…], time 28 day): 96.6 x10_4/uL; RBC ([…], time 28 day): 796 x10_4/ul; Ret ([…], time 28 day): 2.2%; WBC ([…], time 28 day): 90.2 x10_2/uL; KIDNEY_L ([…], time 7 day): 1.1 g; KIDNEY_R ([…], time 7 day): 1.1 g; KIDNEY_TOTAL ([…], time 7 day): 2.2 g; KIDNEY_L ([…], time 14 day): 1.2 g; KIDNEY_R ([…], time 14 day): 1.2 g; KIDNEY_TOTAL ([…], time 14 day): 2.5 g; KIDNEY_L ([…], time 28 day): 1.3 g; KIDNEY_R ([…], time 28 day): 1.4 g; KIDNEY_TOTAL ([…], time 28 day): 2.7 g; LIVER ([…], time 7 day): 12.4 g; LIVER ([…], time 14 day): 13.4 g; LIVER ([…], time 28 day): 15.7 g; A/G ([…], time 7 day): 1.5; ALP ([…], time 7 day): 940.8 IU/L; ALT ([…], time 7 day): 30.4 IU/L; AST ([…], time 7 day): 67 IU/L; BUN ([…], time 7 day): 16.4 mg/dL; CRE ([…], time 7 day): 0.4 mg/dL; Ca ([…], time 7 day): 10.7 mg/dL; Cl ([…], time 7 day): 103 meq/L; DBIL ([…], time 7 day): 0.098 mg/dL; GLC ([…], time 7 day): 182.8 mg/dL; IP ([…], time 7 day): 7 mg/dL; LDH ([…], time 7 day): 205.2 IU/L; Na ([…], time 7 day): 140.8 meq/L; PL ([…], time 7 day): 151 mg/dL; RALB ([…], time 7 day): 3.4 g/dL; TBIL ([…], time 7 day): 0.2 mg/dL; TC ([…], time 7 day): 78.6 mg/dL; TG ([…], time 7 day): 98.2 mg/dL; TP ([…], time 7 day): 5.6 g/dL; gamma-GTP ([…], time 7 day): 1.2 IU/L; A/G ([…], time 14 day): 1.5; ALP ([…], time 14 day): 918.4 IU/L; ALT ([…], time 14 day): 38 IU/L; AST ([…], time 14 day): 64.4 IU/L; BUN ([…], time 14 day): 15.2 mg/dL; CRE ([…], time 14 day): 0.5 mg/dL; Ca ([…], time 14 day): 10.5 mg/dL; Cl ([…], time 14 day): 104 meq/L; DBIL ([…], time 14 day): 0.096 mg/dL; GLC ([…], time 14 day): 196.2 mg/dL; IP ([…], time 14 day): 7 mg/dL; LDH ([…], time 14 day): 181 IU/L; Na ([…], time 14 day): 140.6 meq/L; PL ([…], time 14 day): 141.2 mg/dL; RALB ([…], time 14 day): 3.3 g/dL; TBIL ([…], time 14 day): 0.2 mg/dL; TC ([…], time 14 day): 67 mg/dL; TG ([…], time 14 day): 111.4 mg/dL; TP ([…], time 14 day): 5.6 g/dL; gamma-GTP ([…], time 14 day): 1.6 IU/L; A/G ([…], time 28 day): 1.3; ALP ([…], time 28 day): 577.4 IU/L; ALT ([…], time 28 day): 31.8 IU/L; AST ([…], time 28 day): 59.6 IU/L; BUN ([…], time 28 day): 15.8 mg/dL; CRE ([…], time 28 day): 0.6 mg/dL; Ca ([…], time 28 day): 9.9 mg/dL; Cl ([…], time 28 day): 103.4 meq/L; DBIL ([…], time 28 day): 0.074 mg/dL; GLC ([…], time 28 day): 241.8 mg/dL; IP ([…], time 28 day): 7.1 mg/dL; LDH ([…], time 28 day): 132.8 IU/L; Na ([…], time 28 day): 140.8 meq/L; PL ([…], time 28 day): 121.2 mg/dL; RALB ([…], time 28 day): 3.3 g/dL; TBIL ([…], time 28 day): 0.1 mg/dL; TC ([…], time 28 day): 57.8 mg/dL; TG ([…], time 28 day): 91 mg/dL; TP ([…], time 28 day): 5.9 g/dL; gamma-GTP ([…], time 28 day): 1.2 IU/L
